Source: patent US12673921B2, “Substituted fluorine-containing imidazole salt compound, preparation method therefor, pharmaceutical composition thereof and use thereof” (XIAMEN VIVOHEALTHS TECHNOLOGY CO., LTD., priority 2019, dated 2026)

Tests used:
AMPK = AMPK activity assay at cell level (western blot of p-AMPKα and p-ACC in MEFs); assay type: cell-based, mouse; details: MEF cells, compound 10 nM, 2 h; multiple of the ratio relative to positive control AICAR (3 mM); band brightness by Image J
Protocol: The ability of compounds to activate AMPK in mouse embryonic fibroblasts (MEFs) was determined, which could be specifically carried out by detecting the phosphorylation level (p-AMPKα) of threonine at the 172nd position of AMPK and the phosphorylation level (p-ACC) of serine at the 79th position of the susbtrate ACC1/ACC2 of AMPK (FIG. 1 and Table I) by western blot.
The specific method was as follows: • (1) MEFs with loxP insertion sequences or of wild-type were plated in a 6-well plate and cultured in DMEM containing 10% serum. If a gene needed to be knocked out at this time, when the density of the corresponding MEFs with loxP insertion sequences reached about 30%, an adenovirus capable of expressing cre should be added to the culture well followed by further culture for more than 24 h; • (2) When the cell density was close to 90%, the cells were provided with fresh DMEM, at the same time, a compound (final concentration 10 nM) was added to the cells, followed by culture for 2 h, with an equal volume of DMSO as the negative control, and the cells treated with the addition of AICAR (3 mM) as the positive control; • (3) After sucking up the culture solution, the cells were lysed with 200 μL of a cell lysate (its formulation was given below), then the cells were scraped from the culture dish, ultrasonicated, and subjected to low temperature centrifugation at 20000 g for 10 min; • (4) The supernatant and an equal volume of 2*SDS solution (its formulation was given below) were mixed, and subjected to SDS-PAGE in a concentration of 8%, then the protein was transferred to PVDF membrane; each PVDF membrane was blocked with 25 mL of skim milk for 1 h, and then rinsed with TBST buffer (its formulation was given below) 3 times for 10 min each time; • (5) AMPKα subunit primary antibody (Cell Signaling Technology, #2532), primary antibody of phosphothreonine at the 172nd position of AMPK (Cell Signaling Technology, #2535), ACC primary antibody (Cell Signaling Technology, #3662), or primary antibody of phosphoserine at the 79th position of ACC (Cell Signaling Technology, #3661) was diluted in a ratio of 1:1000 with a primary antibody dilution (its formulation was given below), reacted with the PVDF membrane at room temperature for 12 h, and then rinsed 3 times with TBST buffer; • (6) A 1:1000 dilution of HRP-conjugated goat anti-rabbit secondary antibody (Jackson ImmunoResearch, 111-035-003) was added, reacted at room temperature for 1 h, and then rinsed 3 times with TBST buffer; • (7) The PVDF membrane was dried, reacted in an ECL mixture (WesternBright ECL HRP substrate, Advansta) and subjected to exposure with medical X-ray, developed, finally rinsed, dried, and then scanned to obtain data related to AMPK activation.
The formulations of reagents used were: • Cell lysate: 20 mM Tris-base, pH 7.5, 150 mM NaCl, 1 mM EDTA, 1 mM EGTA, 2.5 mM Sodium pyrophosphate, 1 mM β-glycerolphosphate, 1% Triton X-100 (v/v); • 2*SDS solution: 20% Glycerol (v/v), 4% SDS (m/v), 10% β-mecaptoethanol (v/v), 0.01% Bromophenol blue (m/v); • TBST buffer: 4.84% Tris-base (m/v), 8% NaCl (m/v), 0.1% Tween-20 (v/v); • Primary antibody dilution: TBST buffer containing 5% BSA (v/v).

[1] = Liver microsome stability test, human liver microsome; assay type: in vitro ADME; details: 0.5 mg protein/mL microsome, 1 μM compound, 37° C., NADPH, read-out: HLM 0.5 T1/2 (min), half life in human liver microsome
Protocol: (§1) The experimental steps were as follows: • 1. Preparation of working solution • 1.1 Intermediate solution: 5 μL of a 10 mM stock solution of sample or control was taken out, and diluted with 495 μl of methanol (Conc.: 100 μM, 99% MeOH). • 1.2 Working solution: 50 μL of the intermediate solution was taken out, and diluted with 450 μL of a 100 mM potassium phosphate buffer (Conc.: 10 μM, 9.9% MeOH). • 2. Preparation of NADPH cofactor
(§2) An appropriate amount of NADPH powder was weighed, and dissolved with a MgCl2 (10 mM) solution. • 3. Liver microsome • 3.1 Liver microsome information
(§3) • 3.2 Preparation: a microsome working solution with an appropriate concentration was prepared by using a 100 mM potassium phosphate buffer. • 4. Stop solution
(§4) Glacial acetonitrile, comprising 100 ng/ml Tolbutamide and 100 ng/ml Labetalol as internal standards. • 5. Experimental procedures • 5.1 10 μL of the working solution of sample or control was added per well to all plates (T0, T5, T10, T20, T30, T60, NCF60), except for the blank group; • 5.2 80 μL of the working solution of microsome was added per well to all plates, followed by incubation for 10 min at 37° C.; • 5.3 10 μL of a 100 mM potassium phosphate buffer was added per well to NCF60, followed by incubation at 37° C. and starting timer 1;
(§5) • 5.4 After preheating, 10 μL of NADPH was added per well to each plate, and reaction was started;
(§6) Final concentration of each component in the incubation medium:
(§7) • 5.6 300 μL of the stop solution was added per well to stop the reaction; • 5.7 The system was shaken for about 10 min; • 5.8 The samples were centrifuged (4000 rpm) at 4° C. for 20 min; • 5.9 To 8 new 96-well plates, 300 μL of HPLC water was added per well, then 100 μL of the supernatant was added, mixed and subjected to LC/MS/MS.
(§8) In the above table, HLM 0.5 T1/2 (min) refers to half life (min) of compounds in human liver microsome, DLM 0.5 T1/2 (min) refers to half life (min) of compounds in Beagle dog liver microsome.

[2] = Liver microsome stability test, Beagle dog liver microsome; assay type: in vitro ADME; details: 0.5 mg protein/mL microsome, 1 μM compound, 37° C., NADPH, read-out: DLM 0.5 T1/2 (min), half life in Beagle dog liver microsome
Protocol: as §1, §2, §3, §4, §5, §6, §7, §8

| Structure (SMILES) | Degree of AMPK activation, p-ACC/ACC (AMPK) | Degree of AMPK activation, p-AMPKα/AMPK (AMPK) | half-life at 1 μM ([1]; microsomes) [min] | half-life at 1 μM ([2]; microsomes) [min] | half-life at 1 μM ([1]; liver microsomes) [min] | half-life at 1 μM ([2]; liver microsomes) [min] |
| --- | --- | --- | --- | --- | --- | --- |
| FC(F)(F)C(F)(F)C(F)(F)C(F)(F)C(F)(F)CCCCCCCCCCCn1cc[n+](Cc2c(Cl)cccc2Cl)c1C1CC1.[Cl-] [IB-44] | 1.56 | 0.59 | 93 | 127 | – | – |
| Cc1n(CCCCCCCCCCCC(F)(F)C(F)(F)C(F)(F)C(F)(F)F)cc[n+]1Cc1c(Cl)cccc1Cl.[Cl-] [IB-16] | 0.77 | 2.28 | > 145 | > 145 | – | – |
| Cc1n(CCCCCCCCCCCC(F)(F)C(F)(F)C(F)(F)C(F)(F)C(F)(F)F)cc[n+]1Cc1c(F)cccc1Cl.[Cl-] [IB-34] | 0.63 | 0.98 | 192 | 110 | – | – |
| Cc1n(CCCCCCCCCCCC(F)(F)C(F)(F)C(F)(F)C(F)(F)C(F)(F)C(F)(F)F)cc[n+]1Cc1c(Cl)cccc1Cl.[Cl-] [IB-50] | 1.09 | 0.65 | > 145 | 122 | – | – |
| Cc1n(CCCCCCCCCCCC(F)(F)C(F)(F)C(F)(F)F)cc[n+]1Cc1c(Cl)cccc1Cl.[Cl-] [IB-4] | 0.80 | 1.66 | > 145 | > 145 | – | – |
| CC(C)c1n(CCCCCCCCCCCC(F)(F)C(F)(F)C(F)(F)C(F)(F)C(F)(F)F)cc[n+]1Cc1c(Cl)cccc1Cl.[Cl-] [IB-41] | 1.49 | 0.94 | 85.3 | 79.7 | – | – |
| Cc1n(CCCCCCCCCCCC(F)(F)C(F)(F)C(F)(F)C(F)(F)C(F)(F)F)cc[n+]1Cc1c(Cl)cccc1Cl.[I-] [IB-38] | 1.34 | 2.06 | > 145 | > 145 | – | – |
| Cc1n(CCCCCCCCCCCCCCCCF)cc[n+]1Cc1c(Cl)cccc1Cl.Cl [IA-1] | 0.42 | 1.01 | – | – | 22.3 | 8.5 |
| Cc1n(CCCCCCCCCCCC(F)(F)C(F)(F)C(F)(F)C(F)(F)F)cc[n+]1Cc1c(Cl)cccc1Cl.[Br-] [IB-18] | 0.65 | 1.45 | – | – | – | – |
